One molecule from publication PMC12645137 (Current Neuropharmacology, 2025) can be followed below.

In general, IC50 refers to the concentration that inhibits the measured activity by half. A higher IC50 goes with weaker potency. A word on the inhibition: it is the relative decrease from the control value, in per cent.

Molecules are shown by their SMILES.

Assay [1] concerns the target T1, AChE (source Electric eel) (Electrophorus electricus, UniProt O42275).
T1 construct: from tissue
The assay is described as follows: biochemical. The method, then:
(§1) The cholinesterase inhibitory potentials of our synthesized compounds were evaluated against cholinesterase enzymes (AChE/BChE). The AChE (source Electric eel) and BChE (source equine serum) were used in the study following previously published Ellman's assay. The assay basic principle involves the hydrolytic breakdown of acetylthiocholine iodide (ATChI) by AChE and butyryl thiocholine iodide (BTChI) by BChE enzymes, leading to the formation of an intermediate compound which is subsequently complexed with 5,5-dithio bis nitrobenzoic acid (DTNB) to form a UV-detectable compound. The yellowish color product indicates the hydrolysis of ATChI and BTChI substrates by respective enzymes, which were analyzed at 412 nm using a UV-visible spectrophotometer. […] A test sample of 1000 µl was taken in a cuvette, to which enzyme solution (50 µl) and DTNB reagent of 50 µL were added. The AChE (0.03 U/ml) and BChE (0.01 U/ml) solutions were prepared in 0.1 M phosphate buffer having pH 8.0. The ATChI and BTChI substrate solutions (0.0005 M) and 0.0002273 M solution of DTNB were prepared using distilled water and stored at 8°C before further use. For 15 minutes, the solution mixture was incubated at 30 °C, after which a solution of the substrate (50 µl) was added and then subjected to spectroscopic analysis. Using a double beam spectrophotometer, the sample absorbance was measured for 4 minutes at 412 nm beside the time of reaction. […] All values were taken in triplicate under the same conditions.
(§2) Enzymatic activity percentage=V/Vmaxx100
(§3) V is the reaction rate in the inhibitor's presence, whereas Vmax is the reaction rate in the absence of the inhibitor.

In assay [2] the target is T2, BChE (source equine serum) (Equus caballus, UniProt P81908).
T2 construct: from tissue; host or cells: equine serum
The assay is described as follows: biochemical. The method, then: as §1, §2, §3

The nature of another assay: DPPH antioxidant assay. The format is physicochemical. The note with it: for % Inhibition (DPPH free radicals): mean ± SEM. The method, then: To evaluate the in-vitro antioxidant potential of the synthesized derivatives, a previously reported 1,1 Diphenyl, 2 Picrylhydrazyl (DPPH) assay was utilized. The DPPH solution was prepared by dissolving twenty-four mg DPPH in methanol (100 ml). Test sample solutions in various concentrations (62.50 to 1000 μg/mL) were also prepared. From each dilution, 1 ml sample solution was taken to which 1 ml solution of DPPH was added. The solution mixture was incubated at 23°C for 30 minutes in the dark and then subjected to a UV-visible spectrophotometer to note the absorbance at 517 nm. The absorbance values of all samples were taken in triplicate. Ascorbic acid served as positive control, while negative control only contained a solution of DPPH having no test samples. The % free radical scavenging potential of our compounds was determined by the given formula.
% free radical scavenging activity = [drawing 2] x100
X is the control absorbance, whereas X1 is the absorbance of the test sample.
(In general: Loss of DPPH colour is used to gauge radical scavenging.)

Assay [3] deals with scopolamine-induced amnesic mice. As to the kind of experiment: Elevated Plus Maze (EPM) test in scopolamine-induced amnesic animals. The format is in vivo, albino mice. The note with it: scopolamine 1 mg/kg amnesic mice, i.p., AN-1 10 mg/kg, progesterone 10 mg/kg, galantamine 8 mg/kg. As for the experimental part:
(§4) The mice were divided into the following five groups, and each group had six animals. The standard drug and test samples were carefully administered to the mice via the intraperitoneal route.
(§5) Group IV (Progesterone treated group) = Animals treated with 10 mg/kg progesterone and scopolamine 1 mg/kg.
(§6) Group V (Test compound group) = Animals received 10 mg/kg progesterone derivative (AN-1) and 1 mg/kg scopolamine.
The EPM behavioral test was performed to assess the learning abilities and long-term spatial memory of the experimental animals. The EPM apparatus has the appearance of a plus sign which was 50 cm elevated from the ground. The apparatus has two open arms (50 cm long and 10 cm wide), and two closed arms having dimensions of 20, 50, and 10 cm in height, length, and width, respectively. The open and closed arms were joined with a 10 × 10 central square.
After 30 minutes of the intraperitoneal drug administration on the seventh day of treatment, mice of each group were placed over the open arm end of the EPM apparatus in such a way that their faces were away from the midpoint of the apparatus. Transfer latency (TL) is the time a mouse takes to enter the closed arm entirely with all its legs from the open arm of the apparatus. The time of initial transfer latency (ITL) was observed, and then the animals were allowed freely for 1.5 minutes to search the EPM apparatus.
After twenty-four hours of the training period, test trials were conducted to determine the retention of tasks that were learnt during training. Retention transfer latency (RTL) was measured by placing the experimental mice at the open end of the apparatus, ensuring that they faced away from its midpoint. The mouse was allowed to enter the closed arm entirely with all its legs. A decline in TL compared to ITL indicated an improvement in memory.

For assay [4] the test system is unchanged. As to the kind of experiment: Y-Maze test in scopolamine-induced amnesic animals. It is filed as in vivo, albino mice. The note with it: scopolamine 1 mg/kg amnesic mice, i.p., AN-1 10 mg/kg, progesterone 10 mg/kg, galantamine 8 mg/kg, disease group 22.27%. The method, then: as §4, §5, §6
To determine the effect of synthesized compounds on short-term learning and memory of experimental mice, a Y-Maze test was used. The Y-Maze apparatus consists of three arms that are fixed at 120° angle from each other and have 30 cm length, 20 cm height, and 8 cm width dimensions. After 30 minutes of giving test compounds intraperitoneally, the mouse was positioned at the arm end in such a way that it faced away from the midpoint of the apparatus and was permitted to search the apparatus for five minutes freely. The arm entry sequence and number by each mouse were recorded for 5 minutes using a digital camera. Alternation is defined as the successive entry into 3 dissimilar arms by a mouse (i.e., CBA, BCA, ABC). When the back paws of a mouse were found inside an arm wholly, the arm entry was considered completed. Seventy percent v/v ethanol was used for cleaning the apparatus and to avoid smell cues. The spontaneous alternation performance (SAP) percentage was calculated using the following formula [37]:
% alternation = [(alternations number) / (total arm entries number – 2)] × 100

Assay [5] shares this test system. As to the kind of experiment: Open field test (OFT) in scopolamine-induced amnesic animals. It is filed as in vivo, albino mice. To be noted: i.p., AN-1 10 mg/kg, progesterone 10 mg/kg, galantamine 8 mg/kg. As for the experimental part:
as §4, §5, §6
Open field behavioral test was carried out for the assessment of locomotor activities like the number of line crossing. The apparatus was made from plywood having 81×81×28.5 cm dimensions. Sixteen squares (20×20 cm) were made on the base of the apparatus by drawing four horizontal and four vertical lines. […] Furthermore, exploration time spent by mice in central and peripheral areas of the apparatus was also recorded by allowing the mice for 30 minutes to explore the apparatus.

T2 sequence (P81908 whole entry): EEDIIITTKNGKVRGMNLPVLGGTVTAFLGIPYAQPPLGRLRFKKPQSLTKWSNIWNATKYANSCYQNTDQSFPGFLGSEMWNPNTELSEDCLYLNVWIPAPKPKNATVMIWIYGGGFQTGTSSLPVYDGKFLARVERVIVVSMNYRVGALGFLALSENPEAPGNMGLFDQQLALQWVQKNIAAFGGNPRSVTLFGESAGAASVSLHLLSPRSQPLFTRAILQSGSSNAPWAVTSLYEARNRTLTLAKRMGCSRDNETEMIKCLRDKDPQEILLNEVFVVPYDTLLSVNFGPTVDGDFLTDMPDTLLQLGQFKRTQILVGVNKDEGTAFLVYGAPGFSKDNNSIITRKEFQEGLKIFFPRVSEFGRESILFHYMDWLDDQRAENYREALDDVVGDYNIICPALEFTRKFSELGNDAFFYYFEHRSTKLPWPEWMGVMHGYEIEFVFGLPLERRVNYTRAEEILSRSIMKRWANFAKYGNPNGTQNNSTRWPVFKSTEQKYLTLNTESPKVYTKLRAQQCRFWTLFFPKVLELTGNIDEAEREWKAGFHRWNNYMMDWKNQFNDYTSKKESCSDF
T1 sequence (O42275 24-633): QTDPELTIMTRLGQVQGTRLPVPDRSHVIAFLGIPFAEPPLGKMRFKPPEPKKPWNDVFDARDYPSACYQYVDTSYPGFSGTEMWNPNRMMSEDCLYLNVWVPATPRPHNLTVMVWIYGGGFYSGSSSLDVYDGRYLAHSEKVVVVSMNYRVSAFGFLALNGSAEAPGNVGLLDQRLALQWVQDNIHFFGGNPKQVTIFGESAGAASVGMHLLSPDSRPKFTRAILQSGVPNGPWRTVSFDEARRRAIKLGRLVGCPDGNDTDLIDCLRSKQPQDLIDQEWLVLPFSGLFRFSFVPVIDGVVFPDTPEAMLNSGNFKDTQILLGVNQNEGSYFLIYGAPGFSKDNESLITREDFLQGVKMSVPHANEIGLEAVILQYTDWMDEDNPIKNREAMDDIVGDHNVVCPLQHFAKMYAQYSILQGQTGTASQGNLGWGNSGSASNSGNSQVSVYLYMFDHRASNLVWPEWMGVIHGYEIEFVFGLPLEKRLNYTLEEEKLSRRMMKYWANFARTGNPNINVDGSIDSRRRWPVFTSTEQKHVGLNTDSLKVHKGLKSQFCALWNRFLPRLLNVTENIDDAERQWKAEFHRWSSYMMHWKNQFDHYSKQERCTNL

`COc1ccc(C/N=C(/C)[C@H]2CC[C@H]3[C@@H]4CCC5=CC(=O)CC[C@]5(C)[C@H]4CC[C@]23C)cc1` [AN1, (8S,9S,10R,13S,14S)-17-((Z)-1-((4-methoxybenzyl)imino)ethyl)-10,13-dimethyl-1,2,6,7,8,9,10,11,12,13,14,15,16,17-tetradecahydro-3H-cyc-lopenta[a]phenanthren-3-one]: the figures for the 50% inhibitory concentration (IC50) (in assay [1]; in assay [2]; in the assay “DPPH antioxidant assay”) were 56.5 µM, 43.3 µM and 57.2 µM, respectively. Besides, the inhibition at 125 µg/mL in assay [1] (read-out: % AChE Inhibition) is 69.4%; in assay [2] (read-out: % BChE Inhibition), 68.3%. The inhibition at 250 µg/mL in assay [1] (read-out: % AChE Inhibition) was 76.3%; in assay [2] (read-out: % BChE Inhibition), 71.9%. The inhibition at 500 µg/mL in assay [1] (read-out: % AChE Inhibition) is 83.2%; in assay [2] (read-out: % BChE Inhibition) it was 80.4%. In addition, the inhibition at 1000 µg/mL was 88.9 ± 1.2% in assay [1] (read-out: % AChE Inhibition) and 86.8 ± 1.24% in assay [2] (read-out: % BChE Inhibition). In addition, in assay [2] (read-out: % BChE Inhibition), the inhibition at 62.5 µg/mL is 61.5%. The “% Inhibition (DPPH free radicals)” value in “DPPH antioxidant assay” (62.5 µg/ml) came to 56.46 ± 1.12%; in “DPPH antioxidant assay” (125 µg/ml) it was 67.64 ± 3.04%; in “DPPH antioxidant assay” (250 µg/ml), 70.00 ± 3.95%; in the assay “DPPH antioxidant assay” (500 µg/ml), 76.15 ± 2.31%; in “DPPH antioxidant assay” (1000 µg/ml), 83.37 ± 2.03%. For the same molecule, the “retention transfer latency (RTL)” value in assay [3] (24 h after training, disease group 67 sec) turned out to be 45.33 s. In addition, the “initial transfer latency (ITL)” value in assay [3] (disease group 73 sec) came out at 50.16 s. Further, the spontaneous alternation is reported as 42.72 ± 9.41% in assay [4] and 42.72% in assay [4] (listed as AN-1). Further, the “number of lines crossed” value in assay [5] (5 min, scopolamine 1 mg/kg amnesic mice, disease group 26.33) is recorded as 43.66. Moreover, the “time spent in the central area” value in assay [5] (30 min exploration, scopolamine 1 mg/kg amnesic mice, disease group 4.66) was 10.33 mint. Moreover, the “time spent in the peripheral area” value in assay [5] (versus scopolamine/disease group) is reported as “significantly (p<0.01) less time in the peripheral area”.
